Laboratory results reported in patent publication US20190047966A1, “NOVEL COMPOUND AND PHARMACOLOGICALLY ACCEPTABLE SALT THEREOF” (MEIJI SEIKA PHARMA CO., LTD., priority 2016, published 2019).
Counter-ions that a name gives are not always drawn.

Tests used:
[1] = molecular target: T1, human histamine H4 receptor (Homo sapiens, UniProt Q9H3N8); experiment: Evaluation of Human H4 Receptor Affinity ([3H]histamine binding); conditions: inhibition constant Ki, CHO-K1 membrane preparation, read-out: Evaluation of H4 Receptor Affinity
T1 construct: purchased PerkinElmer Inc; host or cells: CHO-K1
Summary of the method: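 Membranes from CHO-K1 cells expressing human H4 receptor incubated with 8.2 nM [3H]histamine and compound for 90 min at 25 °C in 50 mM Tris-HCl pH 7.4, 1.25 mM EDTA, then filtered and counted. Nonspecific binding defined with 1.0 μM histamine; Ki from IC50 by Cheng-Prusoff using Kd 5.7 nM.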

[2] = molecular target: human histamine H1 receptor (Homo sapiens, UniProt P35367); experiment: Evaluation of Human H1 Receptor Affinity ([3H]pyrilamine binding); design: purchased PerkinElmer Inc; host or cells: CHO-K1; conditions: inhibition constant Ki, CHO-K1 membrane preparation
Summary of the method: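 Ki values are Cheng-Prusoff conversions of IC50 (Kd 1.1 nM) from radioligand displacement of 1.2 nM [3H]pyrilamine, with 1.0 μM pyrilamine defining nonspecific binding.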

human histamine H1 receptor, sequence (P35367 whole entry): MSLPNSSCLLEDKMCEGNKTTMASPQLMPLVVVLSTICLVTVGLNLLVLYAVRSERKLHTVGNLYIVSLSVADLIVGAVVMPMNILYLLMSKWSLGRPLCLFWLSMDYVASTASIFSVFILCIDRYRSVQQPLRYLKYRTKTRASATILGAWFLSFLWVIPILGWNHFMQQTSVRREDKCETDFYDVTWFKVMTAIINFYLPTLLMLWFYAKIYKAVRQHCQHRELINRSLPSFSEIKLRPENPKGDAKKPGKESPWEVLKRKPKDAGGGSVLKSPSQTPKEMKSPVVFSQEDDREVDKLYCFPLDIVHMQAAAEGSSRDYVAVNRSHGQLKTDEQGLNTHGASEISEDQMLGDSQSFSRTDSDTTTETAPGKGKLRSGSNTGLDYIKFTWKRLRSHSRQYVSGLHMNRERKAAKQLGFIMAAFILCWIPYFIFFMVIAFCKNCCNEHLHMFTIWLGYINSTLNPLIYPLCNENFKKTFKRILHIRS

Ki [1]	Ki [2]	Structure (SMILES)
100 to 500 nM	100 to 500 nM	CN1CCN(c2nc(N)nc3c2CCc2cc(NS(=O)(=O)Cc4ccccc4)ccc2-3)CC1 [Example 48, N-(2-amino-4-(4-methylpiperazin-1-yl)-5,6-dihydrobenzo[h]quinazolin-8-yl)-1-phenylmethanesulfonamide]
100 to 500 nM	100 to 500 nM	CN1CCN(c2nc(N)nc3c2CCc2cc(NS(=O)(=O)c4ccc(Cl)nc4)ccc2-3)CC1 [Example 49, N-(2-amino-4-(4-methylpiperazin-1-yl)-5,6-dihydrobenzo[h]quinazolin-8-yl)-6-chloropyridine-3-sulfonamide]
< 100 nM	< 100 nM	CN1CCN(c2nc(N)nc3c2CCc2cc(NS(=O)(=O)c4ccc(F)cc4)ccc2-3)CC1 [Example 50, N-(2-amino-4-(4-methylpiperazin-1-yl)-5,6-dihydrobenzo[h]quinazolin-8-yl)-4-fluorobenzenesulfonamide]
< 100 nM	< 100 nM	CN1CCN(c2nc(N)nc3c2CCc2cc(NS(=O)(=O)CCc4ccccc4)ccc2-3)CC1 [Example 51, N-(2-amino-4-(4-methylpiperazin-1-yl)-5,6-dihydrobenzo[h]quinazolin-8-yl)-6-phenylethane-1-sulfonamide]
< 100 nM	< 100 nM	CN1CCN(c2nc(N)nc3c2CCc2cc(NS(=O)(=O)CCCc4ccccc4)ccc2-3)CC1 [Example 52, N-(2-amino-4-(4-methylpiperazin-1-yl)-5,6-dihydrobenzo[h]quinazolin-8-yl)-3-phenylpropane-1-sulfonamide]
100 to 500 nM	< 100 nM	COc1ccc(S(=O)(=O)Nc2ccc3c(c2)CCc2c-3nc(N)nc2N2CCN(C)CC2)cc1 [Example 53, N-(2-amino-4-(4-methylpiperazin-1-yl)-5,6-dihydrobenzo[h]quinazolin-8-yl)-4-methoxybenzenesulfonamide]
100 to 500 nM	100 to 500 nM	COC(=O)c1ccc(S(=O)(=O)Nc2ccc3c(c2)CCc2c-3nc(N)nc2N2CCN(C)CC2)cc1 [Example 55, methyl 4-(N-(2-amino-4-(4-methylpiperazin-1-yl)-5,6-dihydrobenzo[h]quinazolin-8-yl)sulfamoyl)benzoate]
100 to 500 nM	100 to 500 nM	CN1CCN(c2nc(N)nc3c2CCc2cc(NS(=O)(=O)C4CCCCC4)ccc2-3)CC1 [Example 56, N-(2-amino-4-(4-methylpiperazin-1-yl)-5,6-dihydrobenzo[h]quinazolin-8-yl)cyclohexanesulfonamide]
< 100 nM	100 to 500 nM	CN[C@H]1CCN(c2nc(N)nc3c2CCc2cc(OCc4ccccc4)ccc2-3)C1 [Example 101, (S)-8-(benzyloxy)-4-(3-(methylamino)pyrrolidin-1-yl)-5,6-dihydrobenzo[h]quinazolin-2-amine]
< 100 nM	100 to 500 nM	CN(C)[C@@H]1CCN(c2nc(N)nc3c2CCc2cc(OCc4ccccc4)ccc2-3)C1 [Example 103, (R)-8-(benzyloxy)-4-(3-(dimethylamino)pyrrolidin-1-yl)-5,6-dihydrobenzo[h]quinazolin-2-amine]
< 100 nM	100 to 500 nM	CN(C)C1CCN(c2nc(N)nc3c2CCc2cc(OCc4ccccc4)ccc2-3)CC1 [Example 104, 8-(benzyloxy)-4-(4-(dimethylamino)piperidin-1-yl)-5,6-dihydrobenzo[h]quinazolin-2-amine]
100 to 500 nM	< 100 nM	CCS(=O)(=O)NCCCCN1CCN(c2nc(N)nc3c2CCc2cc(OCc4ccccc4)ccc2-3)CC1 [Example 105, N-(4-(4-(2-amino-8-(benzyloxy)-5,6-dihydrobenzo[h]quinazolin-4-yl)piperazin-1-yl)butyl)ethanesulfonamide bis(trifluoroacetate)]
100 to 500 nM	100 to 500 nM	CN1CCN(c2nc(N)nc3c2CCc2cc(OCc4ccccc4)ccc2-3)CC1CO (stereo not shown) [Example 106, (4-(2-amino-8-(benzyloxy)-5,6-dihydrobenzo[h]quinazolin-4-yl)-1-methylpiperazin-2-yl)methanol]
100 to 500 nM	< 100 nM	CCS(=O)(=O)CCCN1CCN(c2nc(N)nc3c2CCc2cc(OCc4ccccc4)ccc2-3)CC1 [Example 107, 8-(benzyloxy)-4-(4-(3-(ethylsulfonyl)propyl)piperazin-1-yl)-5,6-dihydrobenzo[h]quinazolin-2-amine]
< 100 nM	< 100 nM	CNC(=O)COCCOCCN1CCN(c2nc(N)nc3c2CCc2cc(OCc4ccccc4)ccc2-3)CC1 [Example 108, 2-(2-(2-(4-(2-amino-8-(benzyloxy)-5,6-dihydrobenzo[h]quinazolin-4-yl)piperazin-1-yl)ethoxy)ethoxy)-N-methylacetamide]
100 to 500 nM	< 100 nM	NC(=O)COCCOCCN1CCN(c2nc(N)nc3c2CCc2cc(OCc4ccccc4)ccc2-3)CC1 [Example 109, 2-(2-(2-(4-(2-amino-8-(benzyloxy)-5,6-dihydrobenzo[h]quinazolin-4-yl)piperazin-1-yl)ethoxy)ethoxy)acetamide]
< 100 nM	< 100 nM	CS(=O)(=O)NCCOCCOCCN1CCN(c2nc(N)nc3c2CCc2cc(OCc4ccccc4)ccc2-3)CC1 [Example 110, N-(2-(2-(2-(4-(2-amino-8-(benzyloxy)-5,6-dihydrobenzo[h]quinazolin-4-yl)piperazin-1-yl)ethoxy)ethoxy)ethyl)methanesulfonamide dihydrochloride]
100 to 500 nM	< 100 nM	Nc1nc2c(c(N3CCN(CCOCCOCCN4C(=O)c5ccccc5C4=O)CC3)n1)CCc1cc(OCc3ccc(Cl)cc3)ccc1-2 [Example 112, 2-(2-(2-(2-(4-(2-amino-8-((4-chlorobenzyl)oxy)-5,6-dihydrobenzo[h]quinazolin-4-yl)piperazin-1-yl)ethoxy)ethoxy)ethyl)isoindoline-1,3-dione]
< 100 nM	< 100 nM	COC(=O)COCCN1CCN(c2nc(N)nc3c2CCc2cc(OCc4ccc(Cl)cc4)ccc2-3)CC1 [Example 113, methyl 2-(2-(4-(2-amino-8-((4-chlorobenzyl)oxy)-5,6-dihydrobenzo[h]quinazolin-4-yl)piperazin-1-yl)ethoxy)acetate]
100 to 500 nM	< 100 nM	CCS(=O)(=O)CCCN1CCN(c2nc(N)nc3c2CCc2cc(OCc4ccc(Cl)cc4)ccc2-3)CC1 [Example 114, 8-((4-chlorobenzyl)oxy)-4-(4-(3-(ethylsulfonyl)propyl)piperazin-1-yl)-5,6-dihydrobenzo[h]quinazolin-2-amine]
100 to 500 nM	< 100 nM	Nc1nc2c(c(N3CCN(CCOCCOc4nnn[nH]4)CC3)n1)CCc1cc(OCc3ccc(Cl)cc3)ccc1-2 [Example 115, 4-(4-(2-(2-((tetrazol-5-yl)oxy)ethoxy)ethyl)piperazin-1-yl)-8-((4-chlorobenzyl)oxy)-5,6-dihydrobenzo[h]quinazolin-2-amine dihydrochloride]
100 to 500 nM	< 100 nM	Nc1nc2c(c(N3CCN(CCOCc4cc(OCc5ccccc5)no4)CC3)n1)CCc1cc(OCc3ccc(Cl)cc3)ccc1-2 [Example 116, 4-(4-(2-((3-(benzyloxy)isoxazol-5-yl)methoxy)ethyl)piperazin-1-yl)-8-((4-chlorobenzyl)oxy)-5,6-dihydrobenzo[h]quinazolin-2-amine]
< 100 nM	100 to 500 nM	COC(=O)C1CN(C(=O)CCCN2CCN(c3nc(N)nc4c3CCc3cc(OCc5ccc(Cl)cc5)ccc3-4)CC2)C1 [Example 117, methyl 1-(4-(4-(2-amino-8-((4-chlorobenzyl)oxy)-5,6-dihydrobenzo[h]quinazolin-4-yl)piperazin-1-yl)butanoyl)azetidine-3-carboxylate]
< 100 nM	< 100 nM	NCCOCCOCCN1CCN(c2nc(N)nc3c2CCc2cc(OCc4ccc(Cl)cc4)ccc2-3)CC1 [Example 118, 4-(4-(2-(2-(2-aminoethoxy)ethoxy)ethyl)piperazin-1-yl)-8-((4-chlorobenzyl)oxy)-5,6-dihydrobenzo[h]quinazolin-2-amine]
100 to 500 nM	< 100 nM	Nc1nc2c(c(N3CCN(CCOCCOCC(=O)O)CC3)n1)CCc1cc(OCc3ccccc3)ccc1-2 [Example 119, 2-(2-(2-(4-(2-amino-8-(benzyloxy)-5,6-dihydrobenzo[h]quinazolin-4-yl)piperazin-1-yl)ethoxy)ethoxy)acetic acid bis(trifluoroacetate)]
< 100 nM	< 100 nM	Nc1nc2c(c(N3CCN(CCCCCOCC(=O)O)CC3)n1)CCc1cc(OCc3ccccc3)ccc1-2 [Example 120, 2-((5-(4-(2-amino-8-(benzyloxy)-5,6-dihydrobenzo[h]quinazolin-4-yl)piperazin-1-yl)pentyl)oxy)acetic acid]
100 to 500 nM	< 100 nM	CC(OCCOCCN1CCN(c2nc(N)nc3c2CCc2cc(OCc4ccc(Cl)cc4)ccc2-3)CC1)C(=O)O (stereo not shown) [Example 121, 2-(2-(2-(4-(2-amino-8-((4-chlorobenzyl)oxy)-5,6-dihydrobenzo[h]quinazolin-4-yl)piperazin-1-yl)ethoxy)ethoxy)propanoic acid dihydrochloride]
< 100 nM	< 100 nM	Nc1nc2c(c(N3CCN(CCOCCOCC(=O)O)CC3)n1)CCc1cc(OCc3ccc(F)cc3)ccc1-2 [Example 124, 2-(2-(2-(4-(2-amino-8-((4-fluorobenzyl)oxy)-5,6-dihydrobenzo[h]quinazolin-4-yl)piperazin-1-yl)ethoxy)ethoxy)acetic acid]

Structure (SMILES)	Ki [1]	Ki [2]
CC(OCCCCN1CCN(c2nc(N)nc3c2CCc2cc(OCc4ccc(Cl)cc4)ccc2-3)CC1)C(=O)O (stereo not shown) [Example 123, 2-(4-(4-(2-amino-8-((4-chlorobenzyl)oxy)-5,6-dihydrobenzo[h]quinazolin-4-yl)piperazin-1-yl)butoxy)propanoic acid]	100 to 500 nM	< 100 nM
